Data set [1] can be described thus: pKa of the lipid by TNS fluorescence. Format: physicochemical. The note with it: pKa. An outline of the steps:
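Lipid dissolved in ethanol (2 mM stock) and measured with TNS across eight buffers of differing pH, in water at standard temperature and pressure. Normalized fluorescence intensity plotted against pH and points joined by a smooth line to derive pKa, precise to about 0.2 units.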

The test system of data set [2] is PLK-1 mRNA in Hep3B tumors. The data set can be described thus: Hep3B tumor study, PLK-1 mRNA KD in tumor tissue. Type of data set: in vivo, human. The note with it: for PLK1 inhibition %: Hep3B tumor, mouse, i.v., LNP composition as in the source; for % KD: Table 9 experiment.
Data set [3] concerns PLK-1 mRNA in HepG2 tumors. Put plainly: HepG2 tumor study, PLK-1 mRNA KD in tumor tissue. Format: in vivo, human. The note with it: Mus musculus, HepG2, iv, 24 h, HepG2 tumor in nude mice, 3 × 3 mg/kg siRNA iv, tumors harvested 24 hrs after the last dose; read-out: PLK1 % inhibition. From the text:
Formulated siRNAs are made up of double stranded siRNA sequences specific to a target mRNA sequence, and are in the form of lipid nucleotid particles (LNPs) containing cationic lipids, stealth lipids and neutral lipids, as provided in the Examples below. The siRNA construct for use in targeting the liver is specific to Factor VII. The siRNA construct for use in targeting tumors is specific to PLK1-424, which is published by Judge et al., See, J Clin Invest. 2009 March; 119(3):661-73; doi: 10.1172/JCI37515). • 1. FVII siRNA duplex sequence
HepG2 tumors are established in female nude mice by sc injection of 5×10^6 cells in 100 ul PBS into the left flank. Mice are randomized into treatment groups 10-14 days after seeding as tumors reached an average size of 150 mm^3. siRNA formulated LNP formulations are administered at 3×3 mg/kg dose levels intravenously via the lateral tail vein calculated on a mg siRNAs/kg basis according to individual animal weights (10 ml/kg injection volume). Mice are euthanized by CO2 inhalation at various time points and the tumors are harvested 24 hrs after the last dose for mRNA quantitation. Lipids with a wide range of pKa (5.3-6.6) are used in the LNP formulations. Tumors are measured in 2 dimensions (width×length) to assess tumor growth using digital calipers. Tumor volume is calculated using the equation [a×b×b/2], where a=largest diameter and b=smallest diameter.
About 30-50 mg tumor tissue is homogenized in tissue lysis buffer in a Qiagen homogenizer followed by centrifugation to clarify lysates. Total RNA is isolated using RNeasy isolation kit (catalog number 74106) according to the manufacture's protocol. PLK-1 mRNA is analyzed by quantitative PCR and normalized to human GAPDH. Applied Biosystems human PLK-1 gene expression assay Hs00983229_m1 and human GAPDH endogenous control cat number 4326317E are used for mRNA detection.
The pKa in all tables refers to the pKa of the cationic lipid. Where multiple doses are indicated (e.g., 3×5), the first number indicates the number of doses given and the second number indicates the amount per dose in mg siRNA (biologically active agent) per kg mouse. In general the multiple doses are administered at 24 hour intervals, and tissues for mRNA quantitation are harvested 24 hours after the last dose.

A short description of data set [4]: Particle size and PDI by dynamic light scattering (Malvern Zetasizer). Type of data set: physicochemical. Also on record: Final size: unit not given here. The note with it: for Final size: LNP formulation, Table 10. An outline of the steps: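 Nanoparticles diluted in PBS to a count rate of about 200-400 kcts and measured by dynamic light scattering; size given as intensity-weighted average diameter, with polydispersity index from the same measurement.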

Data set [5] has as its system Factor VII. Put plainly: Factor VII activity assay, in vivo liver delivery of FVII siRNA LNP. The settings on record: dose 1 mg/kg siRNA i.v., ~48 h; lipid/no neutral lipid/CHOL/GM-020 NOF 60/0/36/4, N/P 3. Also on record: species or system mouse. The procedure, abridged: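 Female CD-1 mice (~25 g) given a single i.v. tail-vein dose of FVII siRNA in LNPs (cationic, stealth, neutral lipids), dosed as mg siRNA/kg. Plasma collected ~48 h post-injection; FVII activity read against a standard curve from pooled vehicle-control plasma.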

Where [6] appears, read: LNP formulation with PLK1 siRNA, helper, neutral and stealth lipid, molar ratio and N/P as in the table.
Where [7] appears, read: lipid/no neutral lipid/CHOL/GM-020 NOF 60/0/36/4, N/P 3.

As to `CCCCC/C=C\C/C=C\CCCCCCCCOCC(CN1CCOCC1)OCCOCCNC(=O)O[C@H]1CC[C@@]2(C)C(=CC[C@H]3[C@@H]4CC[C@H]([C@H](C)CCCC(C)C)[C@@]4(C)CC[C@@H]32)C1` (stereo partly drawn) [E0176], the pKa in data set [1] came out at 5.56. This compound also displayed a PLK1 inhibition % in data set [2] (1 × 1 mg siRNA/kg) of 36%. In addition, the inhibition at 3 mg/kg in data set [3] stood at 37%. Besides, the “Final size (nm)” value in data set [4] (setting [6]) was determined as 99.14 nm. This compound also registered a Final size in data set [4] of 99.14.

For the compound `CCCCCCCC/C=C\CCCCCCCCOCC(CCN1CCOCC1)OCCOCCO[C@H]1CC[C@@]2(C)C(=CCC3C2CC[C@@]2(C)C3CC[C@@H]2[C@H](C)CCCC(C)C)C1` (stereo partly drawn) [E0180], in data set [2] (1 × 1 mg siRNA/kg), the PLK1 inhibition % is on record as 16%. The inhibition at 3 mg/kg in data set [3] turned out to be 0%. Further, the “Final size (nm)” value in data set [4] (setting [6]) turned out to be 77.35 nm. The compound further had a Final size in data set [4] of 77.35.

Regarding `CCCCCCCC/C=C\CCCCCCCCOCC(CN1CCCC(C)C1)OCCOCCO[C@H]1CC[C@@]2(C)C(=CC[C@H]3[C@@H]4CC[C@H]([C@H](C)CCCC(C)C)[C@@]4(C)CC[C@@H]32)C1` (stereo partly drawn) [E0119], the pKa in data set [1] came to 5.82. The same compound had a PLK1 inhibition % in data set [2] (1 × 1 mg siRNA/kg) of 40%. Further, in data set [3], the inhibition at 3 mg/kg was 22%. For the same compound, the “Final size (nm)” value in data set [4] (setting [6]) worked out at 99.37 nm. This compound had a Final size in data set [4] of 99.37.

For the compound `CCCCC/C=C\C/C=C\CCCCCCCCOC[C@@H](CN1CCC[C@@H]1C)OCCCOC(=O)CCC(=O)O[C@H]1CC[C@@]2(C)C(=CCC3C2CC[C@@]2(C)C3CC[C@@H]2[C@H](C)CCCC(C)C)C1` (stereo partly drawn) [E0161], in data set [1], the pKa is 6.3. Further, in data set [2] (1 × 1 mg siRNA/kg), the PLK1 inhibition % was found to be 45%. Further, the inhibition at 3 mg/kg in data set [3] is 0%. In addition, in data set [4] (setting [6]), the “Final size (nm)” value is reported as 101.4 nm. In data set [4], the Final size is given as 101.4.

In data set [1], `CCCCC/C=C\C/C=C\CCCCCCCCCCOCC(CN1CCCCC1)OCCCOCCCO[C@H]1CC[C@@]2(C)C(=CC[C@H]3[C@@H]4CC[C@H]([C@H](C)CCCC(C)C)[C@@]4(C)CC[C@@H]32)C1` (stereo partly drawn) [E0096] returned a pKa of 5.77. Further, the inhibition at 3 mg/kg in data set [3] amounted to 17%. Moreover, the Final size in data set [4] was 94.91. In data set [4] (setting [7]), the “Final size (nm)” value amounted to 128.8 nm and the PDI worked out at 0.162. In addition, the FVII inhib % in data set [5] is on record as 14.4%.

The compound `CCCCCCCC/C=C\CCCCCCCCOCC(CN1CCCCC1)OCCCOC(=O)CCC(=O)O[C@H]1CC[C@@]2(C)C(=CC[C@H]3[C@@H]4CC[C@H]([C@H](C)CCCC(C)C)[C@@]4(C)CC[C@@H]32)C1` (stereo partly drawn) [E0178] gave a pKa in data set [1] of 5.92. This compound registered a PLK1 inhibition % in data set [2] (1 × 0.1 mg siRNA/kg) of 0%. In addition, the “% KD” value is given as 0% in data set [2] (0.1 mg/kg) and 35% in data set [2] (1.0 mg/kg). Moreover, the inhibition at 3 mg/kg in data set [3] is 0%. In addition, the “Final size (nm)” value came out at 94.67 nm in data set [4] (LNP formulation with PLK1 siRNA, helper, neutral and stealth lipid, molar ratio and N/P as in the table, stealth lipid S004, molar ratio 50/43/5/2, N/P 4); 88.39 nm in data set [4] (LNP formulation with PLK1 siRNA, helper, neutral and stealth lipid, molar ratio and N/P as in the table, stealth lipid S004, molar ratio 50/48/2, N/P 4). In addition, the Final size in data set [4] stood at 94.67.

What is called pKa is the pH at which an ionisable group is half protonated. As a reminder, the inhibition is the change of the read-out against control, counted positive when it falls.

Values taken from patent US9301923B2, “Lipids, lipid compositions, and methods of using them” (NOVARTIS AG, priority 2009, dated 2016).
